The subject of one data set is endothelial cells. Put plainly: Endothelial cell (EC) migration assay. In kind it is cell-based. From the text:
In this experiment, the effects of VEGF, FGF and nicotine in an endothelial cell (EC) migration assay were observed. The EC migration assay involves growing a confluent endothelial monolayer, and then scraping away half of the cells. The number of endothelial cells that migrate over time into the denuded region was observed. Unstimulated cells will migrate into the region. Angiogenic agents will accelerate this migration.
In this histogram shown in FIG. 8, the number of migrating cells is expressed as a percentage of the number of endothelial cells migrating into the region under unstimulated conditions.

Data set [1] deals with C57BL/6J mice. Put plainly: Disc angiogenesis system (DAS), fibrovascular growth into implanted disc. The data set is classed as in vivo. The settings on record: for angiogenesis in comparison to vehicle: locally in disc pellet: bFGF 20 mcg, Del-1 0.2 M, nicotine 10^-6 M; for effect on nicotine-induced fibrovascular growth (systemic nicotine) / effect on nicotine-induced fibrovascular growth (local nicotine): oral supplementation: LNNA 6 mg/ml, indomethacin 20 mcg/ml; for effect on nicotine-induced fibrovascular growth (systemic nicotine): nicotine in drinking water; for effect on nicotine-induced fibrovascular growth (local nicotine): nicotine inside the DAS. An excerpt: To study whether nicotine induces angiogenesis in vivo, we employed the disc angiogenesis system (DAS) (Kowalski et al. (1992) Exp Mol Pathol 56(1):1-19; Fajardo et al. (1998) Lab Invest 58:718-7244).
Preparation of the disc. The DAS consisted of a disc (11 mm in diameter and 1 mm thickness) made of a polyvinyl alcohol sponge (Kanebo PVA, RippeyCo., Santa Clara, Calif.). Both sides were covered with nitrocellulose cell-impermeable filters (Millipore filters, […] in pore diameter, Millipore, SF, Calif.) of the same diameter as the sponge disc, fixed to the sponge using Millipore glue#1 (xx70000.00, Millipore). As a result, cells (and thus vessels) could penetrate or exit only through the rim of the disc (Kowalski et al. (1992) Exp Mol Pathol 56(1):1-19; Fajardo et al. (1998) Lab Invest 58:718-7244).
In order to study the local effect of nicotine on angiogenesis, nicotine was placed in a pellet which was added directly to the disc. Briefly, a 1.5-mm core (pellet) was cut from the disc center. Both the pellets and discs were sterilized prior to assembly in a laminar flow hood. The pellet was loaded with up to 20 mcl of the nicotine solution and subsequently air-dried. We placed in the disc pellets with either vehicle (PBS, Sigma, Chemical Co., St Louis, Mo., n=5) or nicotine (10^-6 M, Aldrich Chemical Company, Milwaukee, Wis., n=5) to study the effects of locally administered nicotine. For comparison, in some cases basic fibroblast growth factor (bFGF; 20 mcg) or Del-1 protein (0.2 M) was added to the pellet, rather than nicotine. Both bFGF and Del-1 are known to induce angiogenesis. The pellet was then coated with ethylene-vinyl acetate co-polymer (Elvax, Dupont, Chemcentral Corp., Chicago, Ill.) which would permit slow release of the nicotine from the pellet into the disc. The pellet was then re-inserted into the disc before sealing the disc with the millipore filters.
To study the systemic effects of nicotine, in some cases the animals were administered nicotine in their drinking water (see below).
Implantation of the disc. The mice were anesthetized with 4% chloralhydrate [intraperitoneal administration (i.p.), 0.1 cc/10 g body weight]. The flanks and posterior surface of the thorax were shaved and cleaned with saturated 70% isopropyl alcohol. A 2-cm incision was made in the skin of the flank contra-lateral to the implantation site. Blunt dissection through the subcutaneous tissue produced a channel into which the saline moistened disc was inserted. The skin was closed with 5.0 silk suture (Kowalski et al. (1992) Exp Mol Pathol 56(1):1-19; Fajardo et al. (1998) Lab Invest 58:718-7244).
Disc removal and preparation. Two weeks after disc implantation, the mice were sacrificed with an overdose of 4% chloral hydrate (i.p.) and cervical dislocation. A careful incision was made next to the skin overlying the implanted disc, and the disc was gently removed from the implantation site. Attached tissue was carefully detached from the disc. After removing the disc, one filter was separated from the disc. Discs were then fixed in 10% formalin and embedded flat in paraffin. Subsequently, […] sections were made in a plane through the center of the disc and parallel to the disc surface.
Quantitation of results. The disc sections were stained with H&E for light microscopy and histomorphometric measurement of radial growth, and stained with toluidine blue for quantitative determination of total area of fibrovascular growth. Using a video microscope and a computer assisted digital image analysis system (NIH Image 1.59b9), the entire area of fibrovascular growth in the toluidine blue stained disc was calculated and expressed in mm^2. As described in a previous study, total fibrovascular growth area is directly proportional to the total area of the disc occupied by blood vessels (Kowalski et al. (1992) Exp Mol Pathol 56(1):1-19; Fajardo et al. (1998) Lab Invest 58:718-7244).

For data set [2], the system named is C57BL/6J mice. As for the experimental part:
Murine Ischemic Hindlimb Model of Peripheral Arterial Disease (PAD). Mice were anesthetized with 4% chloral hydrate [intraperitoneal administration (i.p.), 0.1 cc/10 g body weight). The medial surface of both hindlimbs were shaved and then cleaned with betadine solution. A 1.5-cm longitudinal incision was performed, extending from the knee to the inguinal ligament. Through this incision, the superficial femoral artery was dissected free along its length. After the distal ends of both the external iliac and superficial femoral arteries were ligated with 7.0 (Ethicon), complete excision of the femoral artery was performed. An additional set of mice underwent sham operation. The incisions were then closed with discontinuous stitches of 5.0 silk suture (Ethicon). Ampicillin (1 mg/10 gm body weight) intraperitoneal injection was administered after surgical procedure.
Tissue Preparation. Three weeks after surgery, mice were euthanized with an overdose of 4% chloral hydrate (i.p) and cervical dislocation, and the adductor and semimembranous muscles were collected for capillary density assessment. Briefly, a longitudinal incision in the medial thigh was made to expose the entire hindlimb muscle. The adductor and semimembranous muscles were removed and immediately frozen in OCT. Subsequently, sections 5 μm were taken from the mid-region of each muscle in a transverse orientation. The sections were air dried and fixed in acetone.
Capillary Densitometry. Immunohistochemistry was performed using an alkaline phosphatase assay to identify the endothelial cells. An eosin counterstain was used to differentiate myocytes. Capillaries and myocytes were identified and counted using light microscopy (20×). For each section, four different fields were selected and the total number of capillaries and myocytes per field determined. These values were averaged to provide a determination of capillary density for each experimental limb. To ensure that value for capillary density was not overestimated due to muscle atrophy, or underestimated due to interstitial edema, capillary density was expressed as a ratio of capillaries to myocytes present in the same field.
Daily intramuscular injections of nicotine solution or vehicle were administered (50 μl ) for a period of three weeks.

Setting [3] is: highest dose (3200 ng/kg = 3.2 μg/kg) i.m. daily for three weeks.
Where [4] appears, read: VEGF 1 ng/ml, FGF, nicotine (FIG. 8).

In the case of `CN(C)C(=O)Oc1cccc([N+](C)(C)C)c1` [neostigmine], the “increase of EC migration” value in the data set with endothelial cells (10^−6 M alone, relative to unstimulated cells) is recorded as “over 50%”.

Regarding “bFGF: basic fibroblast growth factor, known to induce angiogenesis”, in the data set with C57BL/6J mice [1], the “angiogenesis in comparison to vehicle” value is “increased angiogenesis to the same degree”.

Regarding `NC(=NCCC[C@H](N)C(=O)O)N[N+](=O)[O-]` [LNNA, L, nitro-arginine], in the data set with C57BL/6J mice [1], the “effect on nicotine-induced fibrovascular growth (systemic nicotine)” value is given as “blocked” and the “effect on nicotine-induced fibrovascular growth (local nicotine)” value is “blocked the effects of nicotine”.

`CN1CCC[C@H]1c1cccnc1` [nicotine, S-3-(1-methyl-2-pyrrolidinyl)pyridine]: the “angiogenic potency relative to growth factors tested in DAS (Del1, bFGF)” value in the data set on C57BL/6J mice [1] (local effects in the disc angiogenesis system) is “as or more potent”. Further, the “area of fibrovascular growth into the disc” value in the data set with C57BL/6J mice [1] (local nicotine, 10^-6 M in pellet inside the disc, basal about 10 mm^2) is on record as “about 20 mm^2”. The “angiogenesis in comparison to vehicle” value in the data set on C57BL/6J mice [1] is on record as “increased angiogenesis to the same degree”. In addition, the “angiogenesis, systemic versus local nicotine administration” value in the data set on C57BL/6J mice [1] (systemic nicotine (drinking water) compared with nicotine in disc) is on record as “greater than local nicotine administration”. The “angiogenesis, systemic administration versus locally administered bFGF and Del-1” value with C57BL/6J mice [1] (systemic nicotine (drinking water), FIG. 4) is “much greater degree”. Moreover, in the data set with C57BL/6J mice [1] (systemic nicotine, 60 mcg/ml in drinking water, disc removed two weeks after implantation, basal somewhat greater than 10 mm^2), the “area of fibrovascular growth into the disc” value was 35 mm^2. In addition, in the data set on C57BL/6J mice [2] (0.03 μg/kg i.m. daily for three weeks, vehicle control 0.35), the “capillary density in the ischemic limb” value is 0.67 capillaries/myocyte. Besides, in the data set with C57BL/6J mice [2] (setting [3]), the “angiogenic response in the ischemic limb at the highest dose” value is on record as “angiogenesis was not increased”; the “toxicity at the highest dose (interstitial edema and myocyte necrosis)” value is listed as “some toxicity was observed”. In addition, the “angiogenic effect in non-ischemic hindlimbs” value with C57BL/6J mice [2] (untreated non-ischemic limb of animals given i.m. nicotine in the ischemic limb) is listed as “no angiogenic effect was detected”. Besides, in the data set with endothelial cells (setting [4]), the “EC migration, number of migrating cells relative to unstimulated conditions” value is listed as “same degree”.

Turning to VEGF, the “EC migration, number of migrating cells relative to unstimulated conditions” value in the data set on endothelial cells (setting [4]) is reported as “increases EC migration to the same degree as FGF or Nicotine”; in the data set on endothelial cells (high dose VEGF 10 ng/ml), “greatest response”.

Consider `COc1ccc2c(c1)c(CC(=O)O)c(C)n2C(=O)c1ccc(Cl)cc1` [indomethacin], for which, in the data set on C57BL/6J mice [1], the “effect on nicotine-induced fibrovascular growth (systemic nicotine)” value is given as “blocked” and the “effect on nicotine-induced fibrovascular growth (local nicotine)” value is recorded as “blocked the effects of nicotine”.

B1: Del1: Del-1 protein, known to induce angiogenesis (protein, UniProt O43854 24-480, looked up)
EGF-like repeat and discoidin …: DICDPNPCENGGICLPGLADGSFSCECPDGFTDPNCSSVVEVASDEEEPTSAGPCTPNPCHNGGTCEISEAYRGDTFIGYVCKCPRGFNGIHCQHNINECEVEPCKNGGICTDLVANYSCECPGEFMGRNCQYKCSGPLGIEGGIISNQQITASSTHRALFGLQKWYPYYARLNKKGLINAWTAAENDRWPWIQINLQRKMRVTGVITQGAKRIGSPEYIKSYKIAYSNDGKTWAMYKVKGTNEDMVFRGNIDNNTPYANSFTPPIKAQYVRLYPQVCRRHCTLRMELLGCELSGCSEPLGMKSGHIQDYQITASSIFRTLNMDMFTWEPRKARLDKQGKVNAWTSGHNDQSQWLQVDLLVPTKVTGIITQGAKDFGHVQFVGSYKLAYSNDGEHWTVYQDEKQRKDKVFQGNFDNDTHRKNVIDPPIYARHIRILPWSWYGRITLRSELLGCTEEE
Turning to B1, the “angiogenesis in comparison to vehicle” value with C57BL/6J mice [1] is “increased angiogenesis to the same degree”.
